Data on 19 compounds can be found in patent EP4768471A1, “SIX-MEMBERED AND FIVE-MEMBERED FUSED RING DERIVATIVE, AND PREPARATION METHOD THEREFOR AND USE THEREOF” (Guangdong Hengqin Novagains Biopharmaceutical Co., Ltd., priority 2023, dated 2025).

Each structure is given as a SMILES string. Read-outs that look alike come from different tables or passages of the source.

As a reminder, the IC50 is the concentration at which inhibition is half-maximal.

The target of series [1] is T1, human urate transporter 1 (hURAT1) (Homo sapiens, UniProt Q96S37).
T1 construct: host or cells: Flp-In-T-REx-293 (HEK293-derived), doxycycline-induced
T1 sequence (Q96S37 1-553): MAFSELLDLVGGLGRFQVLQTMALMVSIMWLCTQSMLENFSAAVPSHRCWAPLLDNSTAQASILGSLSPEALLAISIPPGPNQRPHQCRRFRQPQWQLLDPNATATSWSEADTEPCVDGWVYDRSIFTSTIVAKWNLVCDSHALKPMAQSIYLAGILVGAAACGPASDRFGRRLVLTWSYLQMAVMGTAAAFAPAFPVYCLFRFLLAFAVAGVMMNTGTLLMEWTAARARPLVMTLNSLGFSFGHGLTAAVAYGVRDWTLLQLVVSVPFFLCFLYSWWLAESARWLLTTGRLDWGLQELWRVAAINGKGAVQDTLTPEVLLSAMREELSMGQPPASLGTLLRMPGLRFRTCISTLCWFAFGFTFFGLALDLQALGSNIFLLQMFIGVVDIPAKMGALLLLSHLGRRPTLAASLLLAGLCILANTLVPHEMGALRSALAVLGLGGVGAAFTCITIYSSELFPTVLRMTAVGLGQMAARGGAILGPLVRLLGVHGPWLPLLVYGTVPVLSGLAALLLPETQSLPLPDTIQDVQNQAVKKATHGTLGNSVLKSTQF
Nature of the series: Inhibitory activity against urate transporter URAT1 (14C-uric acid uptake in Flp-In-T-REx-293-hURAT1 cells). The class given is cell-based. On the procedure:
Inhibitory activity of each compound against urate transporter URAT1 was tested. Compounds: the compounds of the present disclosure were prepared according to the methods in examples; Verinurad was purchased commercially; and CDER167 was prepared according to the method described in the literature (doi: 10.1038/s41401-021-00640-5). Cells: Flp-In-T-REx-293-hURAT1 cells capable of expressing human urate transporter 1 (hURAT1), were purchased from Pharmaron Beijing Co., Ltd., China or can be generated (e.g., by transfecting hURAT1 genes into commercially available Flp-In-T-REx-293 cells according to the method described in the literature doi: 10.1124/dmd.106.012187, and the expression of the hURAT1 genes can be verified by methods such as Western blotting). [drawing 76] The Flp-In-T-REx-293-hURAT1 cells were cultured in a Dulbecco's Modified Eagle Medium (DMEM) in 75 cm^2 flasks under 5% CO2 and 37°C, and passaged every two days. […] The cells were resuspended in the DMEM and then counted, and subsequently prepared into a cell suspension with a proper density. The cells were seeded into a 96-well plate and cultured in a 37°C and 5% CO2 incubator for 24 h. The culture medium was removed, and DMEM containing 200 ng/mL doxycycline was added. The cells were then placed back into the 37°C and 5% CO2 incubator and cultured for 18 h. The test compounds were serially diluted 3-fold in DMSO starting from 10 mmol/L to prepare 10 stock solutions at varying concentrations. A buffer solution was prepared, which contained 125 mmol/L sodium gluconate, 4.8 mmol/L potassium gluconate, 5.6 mmol/L glucose, 1.2 mmol/L potassium dihydrogen phosphate, 1.2 mmol/L magnesium sulfate, 1.3 mmol/L calcium gluconate and 25 mmol/L HEPES (pH = 7.4). 1.2 µL of each test compound stock solution was mixed with 119 µL of buffer to form an assay buffer. After induction for 16 h, the culture medium was removed, and the cells were washed with a prewarmed buffer and incubated for 10 min at 37°C. The buffer was then removed, and an assay buffer containing 50 µmol/L ^14C-uric acid and the test compound was added to the cells, and then the cells were incubated at 37°C for 5 min. The buffer was removed, the cells were washed three times with a precool buffer. Subsequently, 100 mmol/L NaOH was added to lyse the cells for 20 min. The lysate was transferred to a 96-well plate, and then 200 µL of UltimaGold XR scintillation cocktail was added, and radioactivity was measured using a MicroBeta^2 (PerkinElmer). The half-maximal inhibitory concentration (IC50) of each test compound was calculated via GraphPad Prism 8 software using a nonlinear regression fitting equation. The IC50 values were categorized by the following grades: […] Table 2 Inhibitory activity (IC50) of some compounds in the present disclosure against urate transporter

In another series the test system is ICR mice. Nature of the series: Toxicity test: 28-day repeated administration in mice, histopathological examination of liver and kidney. The note with it: intragastric gavage 200 mg/kg once daily for 28 consecutive days, 8 mice per group.
[2] abbreviates: Flp-In-T-REx-293-hURAT1 cells, 50 µmol/L 14C-uric acid, 5 min at 37°C, read-out: IC50.

Experimental for ICR mice: The toxicity of each compound was evaluated following 28-day repeated administration in mice.
Method: ICR mice that passed quarantine were selected, with equal numbers of males and females. The mice were randomly grouped based on body weight and sex, with 8 mice per group. The test compounds included the compounds of the present disclosure and a positive drug Verinurad. The test compounds were administered to the animals via intragastric gavage at a dosage of 200 mg/kg, once daily for 28 consecutive days. Detailed clinical observations were performed after each administration, with at least 2 h observation following the first administration or upon detection of abnormalities. In addition, cage-side observations were conducted once daily in the afternoon. Observations included clinical signs (animal appearance, behavior, diet, response to stimuli, secretions and excretions) and mortality (time of death or time of discovery of death, pre-mortem signs, etc.). In addition, the symptoms of animals, and the onset, severity, and duration of any observed clinical symptoms of animals were recorded. On Day 28 of administration, the mice were euthanized immediately after blood collection was completed and subjected to necropsy. Livers and left kidneys were collected for paraffin embedding, sectioning and hematoxylin-eosin (HE) staining, followed by histopathological examination to observe tissue lesions. Special attention was paid to the degeneration and inflammatory changes in glomeruli and renal tubules, as well as the presence of urea crystals. The animals euthanized due to found moribund or the animals dead during the experiment were subjected to necropsy promptly.

Take `CC(C)(Sc1ccncc1Cc1ccc(C#N)c2ccccc12)C(=O)O` [CDER167, reference compound]: in series [1] (setting [2]), the IC50 was above 1000 nM.
`CC(C)(Sc1ccccc1Cn1cc(C#N)c2ccccc21)C(=O)O` [Compound F-02] gave an IC50 in series [1] of 100 to 500 nM. In addition, the “hepatic or renal toxicity upon histopathological examination” value in the series with ICR mice is on record as “no hepatic or renal toxicity”.
As for `CC(C)(Sc1ccccc1Cn1cc(C#N)c2cnccc21)C(=O)O` [Compound F-05], in series [1] (setting [2]), the IC50 was below 100 nM. The “hepatic or renal toxicity upon histopathological examination” value in the series on ICR mice was “no hepatic or renal toxicity”.
In series [1], `CC(C)(Sc1ccccc1Cn1cc(C#N)c2cccnc21)C(=O)O` [Compound F-07] yielded a half-inhibitory concentration (IC50) below 100 nM. Moreover, the “hepatic or renal toxicity upon histopathological examination” value with ICR mice is recorded as “no hepatic or renal toxicity”.
Turning to `CC(C)(Sc1ccccc1Cn1cc(C#N)c2cncnc21)C(=O)O` [Compound F-08], the IC50 in series [1] (setting [2]) is 100 to 500 nM. Besides, in the series on ICR mice, the “hepatic or renal toxicity upon histopathological examination” value was “no hepatic or renal toxicity”.
Turning to `CC(C)(Sc1ccc(F)cc1Cn1cc(C#N)c2ccccc21)C(=O)O` [Compound F-09], the IC50 in series [1] fell in the range of 100 to 500 nM. Moreover, in the series on ICR mice, the “hepatic or renal toxicity upon histopathological examination” value is recorded as “no hepatic or renal toxicity”.
As to `CC(C)(Sc1ccc(Cl)cc1Cn1cc(C#N)c2ccccc21)C(=O)O` [Compound F-10], the IC50 in series [1] (setting [2]) was 100 to 500 nM. Also, the “hepatic or renal toxicity upon histopathological examination” value in the series on ICR mice is given as “no hepatic or renal toxicity”.
The like results for `CC(C)(Sc1ccc(Br)cc1Cn1cc(C#N)c2ccccc21)C(=O)O` [Compound F-11] were, in that order, 100 to 500 nM and “no hepatic or renal toxicity”.
`Cc1ccc(SC(C)(C)C(=O)O)c(Cn2cc(C#N)c3ccccc32)c1` [Compound F-12] displayed an IC50 in series [1] of 100 to 500 nM. Besides, in the series with ICR mice, the “hepatic or renal toxicity upon histopathological examination” value is on record as “no hepatic or renal toxicity”.
For `COc1ccc(SC(C)(C)C(=O)O)c(Cn2cc(C#N)c3ccccc32)c1` [Compound F-13], the half-maximal inhibitory concentration (IC50) in series [1] (setting [2]) lay in the range of 100 to 500 nM. The “hepatic or renal toxicity upon histopathological examination” value in the series with ICR mice is on record as “no hepatic or renal toxicity”.
With `CC(C)(Sc1ccccc1Cn1cc(C#N)c2c(F)cccc21)C(=O)O` [Compound F-14], the concentration for half-maximal inhibition (IC50) in series [1] lay in the range of 100 to 500 nM. Moreover, the “hepatic or renal toxicity upon histopathological examination” value in the series with ICR mice is on record as “no hepatic or renal toxicity”.
On to `CC(C)(Sc1ccccc1Cn1cc(C#N)c2ccc(F)cc21)C(=O)O` [Compound F-16], for which the IC50 in series [1] is 100 to 500 nM. The “hepatic or renal toxicity upon histopathological examination” value with ICR mice is given as “no hepatic or renal toxicity”.
In series [1], `CC(C)(Sc1ccccc1Cn1cc(C#N)c2cccc(F)c21)C(=O)O` [Compound F-17] registered a half-maximal inhibitory concentration (IC50) of 100 to 500 nM. Also, in the series on ICR mice, the “hepatic or renal toxicity upon histopathological examination” value is on record as “no hepatic or renal toxicity”.
The like results for `N#Cc1cn(Cc2ccccc2SC2(C(=O)O)CCC2)c2ncccc12` [Compound F-20] were, in that order, 100 to 500 nM and “no hepatic or renal toxicity”.
Compound `N#Cc1cn(Cc2cc(F)ccc2SC2(C(=O)O)CCC2)c2ncccc12` [Compound F-26] gave a concentration for half-maximal inhibition (IC50) in series [1] of 100 to 500 nM. In the series with ICR mice, the “hepatic or renal toxicity upon histopathological examination” value was “no hepatic or renal toxicity”.
With `N#Cc1cn(Cc2cc(Cl)ccc2SC2(C(=O)O)CCC2)c2ncccc12` [Compound F-27], in series [1] (setting [2]), the IC50 is 100 to 500 nM. Further, the “hepatic or renal toxicity upon histopathological examination” value in the series on ICR mice is reported as “no hepatic or renal toxicity”.
The matching figures for `N#Cc1cn(Cc2cc(Br)ccc2SC2(C(=O)O)CCC2)c2ncccc12` [Compound F-28]: 100 to 500 nM and “no hepatic or renal toxicity”.
The matching figures for `COc1ccc(SC2(C(=O)O)CCC2)c(Cn2cc(C#N)c3cccnc32)c1` [Compound F-30]: 100 to 500 nM and “no hepatic or renal toxicity”.
As to `CC(C)(Sc1ccncc1-c1ccc(C#N)c2ccccc12)C(=O)O` [Verinurad, reference compound], the IC50 in series [1] (setting [2]) is 500 to 1000 nM. In the series on ICR mice, the “renal toxicity (number of mice affected)” value is 3 out of 8 and the “renal toxicity (percentage of mice affected)” value was determined as 37.5%.
